Assay results: ChEMBL document CHEMBL1909046, “DrugMatrix in vitro pharmacology data”

Key:
[1] = target: Glycine receptor (Rattus norvegicus, UniProt P22771+P24524+P07727+P20781); assay type: cell membranes, Wistar, Spinal cord, Membrane; further: in other assays of this panel Not Active means under 50% inhibition at 10 µM
[2] = target: T1, C-X-C chemokine receptor type 2 (Homo sapiens, UniProt P25025); assay type: cell membranes, CHO-K1, Membrane; conditions: cho-k1; further: in other assays of this panel Not Active means under 50% inhibition at 10 µM
T1 sequence (P25025 whole entry): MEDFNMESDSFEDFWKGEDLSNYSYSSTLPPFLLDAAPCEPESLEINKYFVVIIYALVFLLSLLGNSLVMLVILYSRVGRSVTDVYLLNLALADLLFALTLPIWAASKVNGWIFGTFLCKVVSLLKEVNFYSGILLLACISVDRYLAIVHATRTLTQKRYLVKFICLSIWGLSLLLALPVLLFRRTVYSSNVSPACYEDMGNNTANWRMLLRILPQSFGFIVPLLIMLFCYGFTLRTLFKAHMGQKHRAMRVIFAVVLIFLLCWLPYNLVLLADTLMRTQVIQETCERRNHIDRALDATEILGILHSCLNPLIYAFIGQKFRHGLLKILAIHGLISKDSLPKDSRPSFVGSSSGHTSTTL

[3] = target: 5-hydroxytryptamine receptor 2B (Homo sapiens, UniProt P41595); assay type: cell membranes, CHO-K1, Membrane; further: in other assays of this panel Not Active means under 50% inhibition at 10 µM
Sequence of 5-hydroxytryptamine receptor 2B (P41595 whole entry): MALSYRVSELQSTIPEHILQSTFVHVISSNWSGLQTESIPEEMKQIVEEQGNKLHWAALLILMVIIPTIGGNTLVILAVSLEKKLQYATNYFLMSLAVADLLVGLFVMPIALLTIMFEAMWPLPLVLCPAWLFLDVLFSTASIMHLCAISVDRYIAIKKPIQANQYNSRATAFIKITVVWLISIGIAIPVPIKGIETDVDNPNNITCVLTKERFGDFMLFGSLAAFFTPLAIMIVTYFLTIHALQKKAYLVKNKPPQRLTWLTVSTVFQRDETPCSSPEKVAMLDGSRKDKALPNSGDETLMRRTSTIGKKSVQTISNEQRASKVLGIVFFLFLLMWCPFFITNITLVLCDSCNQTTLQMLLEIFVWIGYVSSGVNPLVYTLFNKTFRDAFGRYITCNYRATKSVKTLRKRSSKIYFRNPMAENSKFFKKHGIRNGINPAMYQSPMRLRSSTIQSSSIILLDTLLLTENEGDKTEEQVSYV

[4] = DRUGMATRIX: Glutamate, NMDA, Agonism radioligand binding (ligand: [3H] CGP-39653); assay type: cell membranes, Rattus norvegicus, Wistar, Cerebral cortex, Membrane; conditions: Not Active = under 50% inhibition at 10 µM
[5] = target: T2, Neuropeptide Y receptor type 1 (Homo sapiens, UniProt P25929); assay type: cell membranes, Membrane; conditions: sk-n-mc; further: in other assays of this panel Not Active means under 50% inhibition at 10 µM
T2 sequence (P25929 whole entry): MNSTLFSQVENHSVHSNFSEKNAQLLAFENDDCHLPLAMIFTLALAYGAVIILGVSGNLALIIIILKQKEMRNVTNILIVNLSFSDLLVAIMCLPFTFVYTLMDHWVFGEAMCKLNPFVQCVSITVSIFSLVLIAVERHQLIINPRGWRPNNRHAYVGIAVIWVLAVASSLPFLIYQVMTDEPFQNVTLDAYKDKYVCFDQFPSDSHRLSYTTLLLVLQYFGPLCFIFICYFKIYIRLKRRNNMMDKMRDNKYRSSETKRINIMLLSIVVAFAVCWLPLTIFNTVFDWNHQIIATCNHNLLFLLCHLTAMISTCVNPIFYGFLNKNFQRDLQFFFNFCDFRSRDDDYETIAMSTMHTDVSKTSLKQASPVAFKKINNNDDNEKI

[6] = target: Tyrosine-protein kinase Fyn (Homo sapiens, UniProt P06241); assay: biochemical; assay type: cell-based, Insect cells; conditions: insect cells
Sequence of Tyrosine-protein kinase Fyn (P06241 whole entry): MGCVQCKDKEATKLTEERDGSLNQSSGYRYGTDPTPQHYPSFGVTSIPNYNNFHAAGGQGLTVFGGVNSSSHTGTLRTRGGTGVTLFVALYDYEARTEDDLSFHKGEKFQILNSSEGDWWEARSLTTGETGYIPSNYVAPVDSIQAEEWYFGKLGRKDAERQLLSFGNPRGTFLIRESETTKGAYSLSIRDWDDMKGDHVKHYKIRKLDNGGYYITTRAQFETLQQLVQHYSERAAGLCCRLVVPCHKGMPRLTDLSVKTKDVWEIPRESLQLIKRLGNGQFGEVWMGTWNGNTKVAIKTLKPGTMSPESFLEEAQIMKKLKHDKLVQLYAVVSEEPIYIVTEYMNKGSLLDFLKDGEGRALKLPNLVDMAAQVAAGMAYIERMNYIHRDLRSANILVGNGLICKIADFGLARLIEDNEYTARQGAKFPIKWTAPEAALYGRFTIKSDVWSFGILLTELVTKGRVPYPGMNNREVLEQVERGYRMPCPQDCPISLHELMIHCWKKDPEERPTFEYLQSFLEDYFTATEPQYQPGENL

[7] = target: Beta-3 adrenergic receptor (Homo sapiens, UniProt P13945); assay: DRUGMATRIX: Adrenergic beta3 radioligand binding (ligand: [125I] Cyanopindolol); assay type: cell membranes, HEK293, Membrane; conditions: hek293; Not Active = under 50% inhibition at 10 µM
Sequence of Beta-3 adrenergic receptor (P13945 whole entry): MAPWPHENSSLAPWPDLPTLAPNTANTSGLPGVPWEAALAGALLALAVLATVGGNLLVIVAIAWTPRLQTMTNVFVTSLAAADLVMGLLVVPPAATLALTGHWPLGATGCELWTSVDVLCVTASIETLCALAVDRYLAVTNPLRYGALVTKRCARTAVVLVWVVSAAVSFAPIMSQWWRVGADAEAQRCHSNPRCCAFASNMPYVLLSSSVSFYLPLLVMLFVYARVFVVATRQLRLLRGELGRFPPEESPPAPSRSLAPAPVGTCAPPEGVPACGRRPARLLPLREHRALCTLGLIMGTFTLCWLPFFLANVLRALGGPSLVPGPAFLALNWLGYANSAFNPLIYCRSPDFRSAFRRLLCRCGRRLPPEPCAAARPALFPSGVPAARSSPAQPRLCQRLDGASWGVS

[8] = target: Nitric oxide synthase 1 (Rattus norvegicus, UniProt P29476); assay type: tissue-based, Cerebellum; further: in other assays of this panel Not Active means under 50% inhibition at 10 µM
Sequence of Nitric oxide synthase 1 (P29476 whole entry): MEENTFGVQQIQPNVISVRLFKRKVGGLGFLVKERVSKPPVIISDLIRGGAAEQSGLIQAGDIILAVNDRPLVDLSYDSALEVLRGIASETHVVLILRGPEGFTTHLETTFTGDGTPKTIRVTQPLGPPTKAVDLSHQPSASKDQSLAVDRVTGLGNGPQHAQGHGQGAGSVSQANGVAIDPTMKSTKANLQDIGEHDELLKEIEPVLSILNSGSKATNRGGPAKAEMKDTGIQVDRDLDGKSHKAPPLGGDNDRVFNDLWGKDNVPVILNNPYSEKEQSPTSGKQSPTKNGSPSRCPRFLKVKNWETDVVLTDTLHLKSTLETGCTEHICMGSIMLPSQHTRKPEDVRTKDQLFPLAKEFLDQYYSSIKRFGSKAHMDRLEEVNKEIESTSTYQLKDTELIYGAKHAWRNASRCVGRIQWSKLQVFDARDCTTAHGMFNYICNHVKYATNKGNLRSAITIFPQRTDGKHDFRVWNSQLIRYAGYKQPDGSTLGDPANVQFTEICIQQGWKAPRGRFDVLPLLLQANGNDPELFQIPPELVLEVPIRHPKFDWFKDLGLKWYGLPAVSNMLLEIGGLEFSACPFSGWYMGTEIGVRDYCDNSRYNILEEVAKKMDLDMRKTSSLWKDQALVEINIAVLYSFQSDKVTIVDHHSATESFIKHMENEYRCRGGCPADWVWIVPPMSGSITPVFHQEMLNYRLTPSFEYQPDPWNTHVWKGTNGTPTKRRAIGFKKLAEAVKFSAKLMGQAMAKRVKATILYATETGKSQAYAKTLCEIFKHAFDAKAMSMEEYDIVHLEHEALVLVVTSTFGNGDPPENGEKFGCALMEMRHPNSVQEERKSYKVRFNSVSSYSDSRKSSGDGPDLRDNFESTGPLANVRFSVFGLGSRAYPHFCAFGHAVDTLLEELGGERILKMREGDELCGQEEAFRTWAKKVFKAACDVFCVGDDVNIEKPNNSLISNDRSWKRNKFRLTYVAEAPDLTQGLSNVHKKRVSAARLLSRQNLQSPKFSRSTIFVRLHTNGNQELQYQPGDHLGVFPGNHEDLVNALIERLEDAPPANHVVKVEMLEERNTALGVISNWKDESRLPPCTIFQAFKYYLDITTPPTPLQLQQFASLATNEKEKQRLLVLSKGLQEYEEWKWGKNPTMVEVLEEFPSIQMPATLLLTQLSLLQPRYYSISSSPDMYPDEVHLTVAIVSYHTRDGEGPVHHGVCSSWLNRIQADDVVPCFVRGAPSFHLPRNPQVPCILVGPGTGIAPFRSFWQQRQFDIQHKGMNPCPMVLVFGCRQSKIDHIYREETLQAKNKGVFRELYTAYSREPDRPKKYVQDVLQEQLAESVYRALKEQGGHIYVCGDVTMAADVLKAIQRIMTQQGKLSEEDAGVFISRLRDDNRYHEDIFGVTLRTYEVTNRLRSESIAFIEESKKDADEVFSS

Row | Compound | IC50 [1] | IC50 [2] | IC50 ([3]; cho-k1) | IC50 [4] | Ki [4] | IC50 [5] | IC50 [6] | IC50 [7] | IC50 [8] | IC50 ([3]; read-out: IC50) [nM] | Ki ([3]; read-out: Ki) [nM] | Ki [1] | Ki [2] | Ki ([3]; cho-k1) | Ki [5] | Ki [6] | Ki [7] | Ki [8]
1 | C#C[C@]1(O)CC[C@H]2[C@@H]3CCC4=CC(=O)CC[C@@H]4[C@H]3CC[C@@]21C [NORETHINDRONE] | Not Active | Not Active | Not Active | Not Active | Not Active | Not Active | Not Active | Not Active | Not Active | – | – | – | – | – | – | – | – | –
2 | O=C1CN(/N=C/c2ccc([N+](=O)[O-])o2)C(=O)N1 [NITROFURANTOIN] | Not Active | Not Active | Not Active | Not Active | Not Active | Not Active | Not Active | Not Active | Not Active | – | – | – | – | – | – | – | – | –
3 | c1ccc2c(c1)Nc1ccccc1S2 [PHENOTHIAZINE] | Not Active | Not Active | Not Active | Not Active | Not Active | Not Active | Not Active | Not Active | Not Active | – | – | – | – | – | – | – | – | –
4 | CC(CN1c2ccccc2Sc2ccccc21)N(C)C (stereo not drawn) [PROMETHAZINE] | Not Active | Not Active | – | Not Active | Not Active | Not Active | Not Active | Not Active | Not Active | 68 | 43 | – | – | – | – | – | – | –
5 | c1ccc(Cn2ccnc2)cc1 | Not Active | Not Active | Not Active | Not Active | Not Active | Not Active | Not Active | Not Active | Not Active | – | – | – | – | – | – | – | – | –
6 | CC(C)Cn1cnc2c(N)nc3ccccc3c21 [IMIQUIMOD] | Not Active | Not Active | Not Active | Not Active | Not Active | Not Active | Not Active | Not Active | Not Active | – | – | – | – | – | – | – | – | –
7 | OC[C@H]1OC2C3[C@@H](CO)OC(O[C@H]4[C@H](O)[C@@H](O)[C@@H](O[C@H]5[C@H](O)[C@@H](O)[C@@H](O[C@H]6[C@H](O)[C@@H](O)[C@@H](O[C@H]7[C@H](O)[C@@H](O)[C@@H](O[C@H]8[C@H](O)[C@@H](O)[C@@H](O[C@H]9[C@H](O)[C@@H](O)C(OC1[C@H](O)[C@H]2O)O[C@@H]9CO)O[C@@H]8CO)O[C@@H]7CO)O[C@@H]6CO)O[C@@H]5CO)O[C@@H]4CO)[C@H](O)[C@H]3O | Not Active | Not Active | Not Active | Not Active | Not Active | Not Active | Not Active | Not Active | Not Active | – | – | – | – | – | – | – | – | –
8 | COc1cc(/C=C/C(=O)O)ccc1O [FERULATE] | Not Active | Not Active | Not Active | Not Active | Not Active | Not Active | Not Active | Not Active | Not Active | – | – | – | – | – | – | – | – | –
9 | CCN1C[C@]2(COC)[C@H](O)C[C@H](OC)[C@@]34[C@@H]5C[C@@]6(O)[C@H](OC(=O)c7ccccc7)[C@@H]5[C@@](OC(C)=O)([C@@H]([C@H](OC)[C@H]23)[C@@H]14)[C@@H](O)[C@@H]6OC [ACONITINE] | Not Active | Not Active | Not Active | Not Active | Not Active | Not Active | Not Active | Not Active | Not Active | – | – | – | – | – | – | – | – | –
10 | CO[C@H]1O[C@@H]2O[C@@]3(C)CC[C@H]4[C@H](C)CC[C@@H]([C@H]1C)[C@@]24OO3 | Not Active | Not Active | Not Active | Not Active | Not Active | Not Active | Not Active | Not Active | Not Active | – | – | – | – | – | – | – | – | –
11 | C[C@@H]1[C@H](O)[C@@H](C)/C=C/C=C/C=C/C=C/C=C/C=C/C=C/[C@H](O[C@@H]2O[C@H](C)[C@@H](O)[C@H](N)[C@@H]2O)C[C@@H]2O[C@](O)(C[C@@H](O)C[C@@H](O)[C@H](O)CC[C@@H](O)C[C@@H](O)CC(=O)O[C@H]1C)C[C@H](O)[C@H]2C(=O)O [AMPHOTERICIN B] | Not Active | Not Active | Not Active | Not Active | Not Active | Not Active | Not Active | Not Active | Not Active | – | – | – | – | – | – | – | – | –
12 | Oc1ncnc2[nH]ncc12 [ALLOPURINOL] | Not Active | Not Active | Not Active | Not Active | Not Active | Not Active | Not Active | Not Active | Not Active | – | – | – | – | – | – | – | – | –
13 | COc1cc([C@@H]2c3cc4c(cc3[C@H](O)[C@H]3COC(=O)[C@H]23)OCO4)cc(OC)c1OC [PODOFILOX] | Not Active | Not Active | Not Active | Not Active | Not Active | Not Active | Not Active | Not Active | Not Active | – | – | – | – | – | – | – | – | –
14 | NC(=O)CN1CCCC1=O | Not Active | Not Active | Not Active | Not Active | Not Active | Not Active | Not Active | Not Active | Not Active | – | – | – | – | – | – | – | – | –
15 | POVIDONE | Not Active | Not Active | Not Active | Not Active | Not Active | Not Active | Not Active | Not Active | Not Active | – | – | Not Active | Not Active | Not Active | Not Active | Not Active | Not Active | Not Active
16 | Cc1c(N)nc([C@H](CC(N)=O)NC[C@H](N)C(N)=O)nc1C(=O)N[C@H](C(=O)N[C@H](C)[C@@H](O)[C@H](C)C(=O)N[C@H](C(=O)NCCc1nc(-c2nc(C(=O)NCCC[S+](C)C)cs2)cs1)[C@@H](C)O)[C@@H](O[C@@H]1O[C@@H](CO)[C@@H](O)[C@H](O)[C@@H]1O[C@H]1O[C@H](CO)[C@@H](O)[C@H](OC(N)=O)[C@@H]1O)c1c[nH]cn1.[Br-] [BLEOMYCIN A2] | Not Active | Not Active | Not Active | Not Active | Not Active | Not Active | Not Active | Not Active | Not Active | – | – | – | – | – | – | – | – | –
17 | CN(Cc1cc(Br)cc(Br)c1N)C1CCCCC1 [BROMHEXINE] | Not Active | Not Active | Not Active | Not Active | Not Active | Not Active | Not Active | Not Active | Not Active | – | – | – | – | – | – | – | – | –
18 | Nc1ccc(Cc2ccc(N)cc2)cc1 | Not Active | Not Active | Not Active | Not Active | Not Active | Not Active | Not Active | Not Active | Not Active | – | – | – | – | – | – | – | – | –
19 | C[C@]12CC[C@@H](O)C[C@@H]1CC[C@@H]1[C@@H]2CC[C@]2(C)C(=O)CC[C@@H]12 [ANDROSTERONE] | Not Active | Not Active | Not Active | Not Active | Not Active | Not Active | Not Active | Not Active | Not Active | – | – | – | – | – | – | – | – | –
20 | O=C(O)c1ccccc1 [BENZOIC ACID] | Not Active | Not Active | Not Active | Not Active | Not Active | Not Active | Not Active | Not Active | Not Active | – | – | – | – | – | – | – | – | –
